Results: ChEMBL document CHEMBL1268920, “Design and synthesis of aminohydantoins as potent and selective human β-secretase (BACE1) inhibitors with enhanced brain permeability” (Bioorg Med Chem Lett, 2010)

tested on: Brain; experiment: Permeability across brain in Tg2576 mouse at 100 mg/kg, po; type: ADME, organism-based; parameters: dose 100 mg/kg, route oral; conditions: in vivo

Row | SMILES | permeability [%]
1 | COc1ccc([C@]2(c3cccc(-c4cccnc4)c3)N=C(N)N(C)C2=O)cc1C | 15
2 | COc1ccc([C@]2(c3cccc(-c4cccnc4F)c3)N=C(N)N(C)C2=O)cc1C | 10
3 | CN1C(=O)[C@@](c2ccc(OC(F)(F)F)cc2)(c2cccc(-c3cccnc3)c2)N=C1N | 10
4 | CN1C(=O)[C@](c2ccccc2)(c2ccc(OC(F)F)cc2)N=C1N | 90
5 | CN1C(=O)C(c2ccccc2)(c2ccccc2)N=C1N | 81

The remaining lines, values ahead:

Row | permeability [%] | SMILES
6 | 7 | COc1ccc([C@]2(c3cccc(-c4cccnc4OC)c3)N=C(N)N(C)C2=O)cc1C
7 | 5 | COc1ccc([C@]2(c3cccc(-c4cncnc4)c3)N=C(N)N(C)C2=O)cc1C
8 | 10 | CN1C(=O)[C@@](c2ccc(OC(F)(F)F)cc2)(c2cccc(-c3cccnc3F)c2)N=C1N
9 | 9 | CN1C(=O)[C@@](c2ccc(OC(F)F)cc2)(c2cccc(-c3cc(F)cnc3F)c2)N=C1N
10 | 9 | CN1C(=O)[C@@](c2ccc(OC(F)F)cc2)(c2cccc(-c3cccnc3F)c2)N=C1N

tested on: not listed separately; experiment: Ratio of AUC in brain to plasma in Tg2576 mouse; type: ADME; conditions: brain and plasma, read-out: Ratio AUC

Row | SMILES | Kp
11 | CN1C(=O)C(c2ccccc2)(c2ccccc2)N=C1N | 0.8
12 | CN1C(=O)[C@@](c2ccc(OC(F)(F)F)cc2)(c2ccc(F)c(-c3cncnc3)c2)N=C1N | 0.1
13 | NC1=NC(c2ccccc2)(c2ccccc2)C2=NCCCN12 | 1
14 | COc1ccc([C@]2(c3ccc(F)c(-c4cccnc4F)c3)N=C(N)N(C)C2=O)cc1C | 0.1
